Test [1] addresses T1, IGF-1R (Homo sapiens, UniProt P08069).
T1 construct: expressed in transfected cells
Description: Example B-1: IGF-1R Assay (PC3 cells stimulated with IGF1, AlphaLISA on cell lysates). Conditions: compound two hours, IGF1 200 ng/mL for 30 min, read-out: IC50, Biological Activity against IGF-1R (Table B1). Format: cell-based. The method in brief:
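IC50 from AlphaLISA read-out of lysed PC3 cells, percent inhibition normalized between vehicle and EC80 controls. Before lysis, cells had 2 h serum-free starvation, 2 h exposure to compound in 3× dilution series, and 30 min IGF1 stimulation at final 200 ng/mL.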

The target in test [2] is T1, IGF-1R. The test is described as follows: Example B-2: IGF-1R Assay (PathHunter cell lines, EC80 agonist challenge, chemiluminescent detection). Type of test: cell-based. As to conditions: PathHunter cells, compound 60 minutes at 37° C., EC80 agonist 3 hours; read-out: IC50, Biological Activity against IGF-1R (Table B2). Summed up: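 Read-out is PathHunter chemiluminescence, developed for 1 h at room temperature after a 3 h room-temperature EC80 agonist challenge that followed 60 min compound pre-treatment at 37° C (1% vehicle). IC50 comes from % inhibition normalized to EC80 and vehicle controls.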

Molecules are shown by their SMILES.

T1 sequence (P08069 31-1367): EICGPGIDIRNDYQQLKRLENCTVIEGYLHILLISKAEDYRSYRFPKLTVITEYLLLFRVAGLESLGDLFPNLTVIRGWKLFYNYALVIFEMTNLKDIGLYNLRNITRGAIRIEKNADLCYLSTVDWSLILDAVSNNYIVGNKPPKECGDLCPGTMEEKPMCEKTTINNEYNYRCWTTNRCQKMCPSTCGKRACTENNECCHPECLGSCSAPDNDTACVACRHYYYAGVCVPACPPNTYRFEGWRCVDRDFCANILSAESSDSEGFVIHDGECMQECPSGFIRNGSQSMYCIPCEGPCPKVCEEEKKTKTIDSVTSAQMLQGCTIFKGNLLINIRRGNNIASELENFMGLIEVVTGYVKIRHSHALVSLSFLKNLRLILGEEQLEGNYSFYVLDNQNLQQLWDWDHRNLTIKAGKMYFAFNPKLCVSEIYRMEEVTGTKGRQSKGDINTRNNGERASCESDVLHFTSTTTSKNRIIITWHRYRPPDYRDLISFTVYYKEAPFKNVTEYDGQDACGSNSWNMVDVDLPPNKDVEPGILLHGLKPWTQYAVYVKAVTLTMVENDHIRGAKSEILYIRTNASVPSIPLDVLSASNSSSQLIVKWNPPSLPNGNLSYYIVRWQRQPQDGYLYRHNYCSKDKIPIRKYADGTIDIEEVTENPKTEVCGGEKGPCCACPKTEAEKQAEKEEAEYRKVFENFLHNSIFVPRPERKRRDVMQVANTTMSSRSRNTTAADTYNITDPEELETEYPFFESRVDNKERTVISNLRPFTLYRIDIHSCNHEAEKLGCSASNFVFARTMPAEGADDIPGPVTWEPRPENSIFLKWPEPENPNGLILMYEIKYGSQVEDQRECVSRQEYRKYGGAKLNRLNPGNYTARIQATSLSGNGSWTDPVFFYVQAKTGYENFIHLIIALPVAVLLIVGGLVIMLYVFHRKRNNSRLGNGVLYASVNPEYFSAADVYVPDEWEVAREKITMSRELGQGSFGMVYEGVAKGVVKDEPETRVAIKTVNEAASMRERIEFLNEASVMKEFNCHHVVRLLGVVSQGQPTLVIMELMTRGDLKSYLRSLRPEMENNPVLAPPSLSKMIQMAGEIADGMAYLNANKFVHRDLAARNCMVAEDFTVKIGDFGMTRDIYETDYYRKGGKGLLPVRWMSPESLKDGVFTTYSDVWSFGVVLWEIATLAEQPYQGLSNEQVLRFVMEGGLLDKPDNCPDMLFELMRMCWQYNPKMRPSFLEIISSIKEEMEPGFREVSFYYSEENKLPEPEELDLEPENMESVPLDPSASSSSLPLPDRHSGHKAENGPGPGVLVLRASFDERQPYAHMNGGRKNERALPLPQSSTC

A word on the IC50: it is the concentration that gives 50% inhibition. For `CC1(C)C(=O)N(c2ccc(SC(F)(F)F)cc2)C(=O)N1Cc1ccnc2[nH]ccc12` [Compound 1, 1-((1H-pyrrolo[2,3-b]pyridin-4-yl)methyl)-5,5-dimethyl-3-(4-((trifluoromethyl)thio)phenyl)imidazolidine-2,4-dione], the IC50 in test [1] and in test [2] was not above 500 nM throughout.
As to `CC1(C)C(=O)N(c2ccc(SC(F)(F)F)cc2)C(=O)N1Cc1ccnc(NC2CCCC2)c1` [Compound 369, 1-((2-(cyclopentylamino)pyridin-4-yl)methyl)-5,5-dimethyl-3-(4-((trifluoromethyl)thio)phenyl) imidazolidine-2,4-dione], the IC50 in test [1] was not above 500 nM.
`CC(C)NC(=O)Nc1cc(CN2C(=O)N(c3ccc(SC(F)(F)F)cc3)C(=O)C2(C)C)ccn1` [Compound 370, 1-(4-((5,5-dimethyl-2,4-dioxo-3-(4-((trifluoromethyl)thio)phenyl)imidazolidin-1-yl)methyl)pyridin-2-yl)-3-isopropylurea]: the IC50 in test [1] was not above 500 nM.
Still for that read-out and setting: for `Cc1ccc(NC(=O)Nc2cc(CN3C(=O)N(c4ccc(SC(F)(F)F)cc4)C(=O)C3(C)C)ccn2)cc1` [Compound 371, 1-(4-((5,5-dimethyl-2,4-dioxo-3-(4-((trifluoromethyl)thio)phenyl)imidazolidin-1-yl)methyl)pyridin-2-yl)-3-(p-tolyl)urea] the value was not above 500 nM.
Still for that read-out and setting: as for `Cc1cccc(NC(=O)Nc2cc(CN3C(=O)N(c4ccc(SC(F)(F)F)cc4)C(=O)C3(C)C)ccn2)c1` [Compound 372, 1-(4-((5,5-dimethyl-2,4-dioxo-3-(4-((trifluoromethyl)thio)phenyl)imidazolidin-1-yl)methyl)pyridin-2-yl)-3-(m-tolyl)urea], the figure is not above 500 nM; as for `CC1(C)C(=O)N(c2ccc(SC(F)(F)F)cc2)C(=O)N1Cc1ccnc(NC(=O)NC2CCC(F)(F)C2)c1` (stereo not drawn) [Compound 374, 1-(3,3-difluorocyclopenty)-3-(4-((5,5-dimethyl-2,4-dioxo-3-(4-((trifluoromethyl)thio)phenyl)imidazolidin-1-yl)methyl)pyridin-2-yl)urea], not above 500 nM.
Regarding `CC1(C)C(=O)N(c2ccc(SC(F)(F)F)cc2)C(=O)N1Cc1ccnc(NC(=O)Nc2ccccc2F)c1` [Compound 375, 1-(4-((5,5-dimethyl-2,4-dioxo-3-(4-((trifluoromethyl)thio)phenyl)imidazolidin-1-yl)methyl)pyridin-2-yl)-3-(2-fluorophenyl)urea], in test [1], the IC50 was not above 500 nM.
Turning to `CC1(C)C(=O)N(c2ccc(SC(F)(F)F)cc2)C(=O)N1Cc1ccnc(NC(=O)Nc2ccc(C#N)cc2)c1` [Compound 376, 1-(4-cyanophenyl)-3-(4-((5,5-dimethyl-2,4-dioxo-3-(4-((trifluoromethyl)thio)phenyl)imidazolidin-1-yl)methyl)pyridin-2-yl)urea], the IC50 in test [1] is not above 500 nM.
Still for that read-out and setting: for `CC1(C)C(=O)N(c2ccc(SC(F)(F)F)cc2)C(=O)N1Cc1ccnc(NC(=O)Nc2ccc(Cl)cc2)c1` [Compound 377, 1-(4-chlorophenyl)-3-(4-((5,5-dimethyl-2,4-dioxo-3-(4-((trifluoromethyl)thio)phenyl)imidazolidin-1-yl)methyl)pyridin-2-yl)urea] the value was 500 to 2000 nM; for `CC1(C)C(=O)N(c2ccc(SC(F)(F)F)cc2)C(=O)N1Cc1ccnc(NC2CCC2)c1` [Compound 378, 1-((2-(cyclobutylamino)pyridin-4-yl)methyl)-5,5-dimethyl-3-(4-((trifluoromethyl)thio)phenyl) imidazolidine-2,4-dione], not above 500 nM; for `CC(C)Nc1cc(CN2C(=O)N(c3ccc(SC(F)(F)F)cc3)C(=O)C2(C)C)ncn1` [Compound 379, 1-((6-(isopropylamino)pyrimidin-4-yl)methyl)-5,5-dimethyl-3-(4-((trifluoromethyl)thio)phenyl) imidazolidine-2,4-dione], 500 to 2000 nM.
Take `CC1(C)C(=O)N(c2ccc(SC(F)(F)F)cc2)C(=O)N1Cc1ccnc(N)c1F` [Compound 380, 1-((2-amino-3-fluoropyridin-4-yl)methyl)-5,5-dimethyl-3-(4-((trifluoromethyl)thio)phenyl) imidazolidine-2,4-dione]: the concentration for half-maximal inhibition (IC50) in test [1] is not above 500 nM.
The same measure, in the same setting: for `CCC(C)Nc1cc(CN2C(=O)N(c3ccc(SC(F)(F)F)cc3)C(=O)C2(C)C)ccn1` (stereo not drawn) [Compound 381, 1-((2-(sec-butylamino)pyridin-4-yl)methyl)-5,5-dimethyl-3-(4-((trifluoromethyl)thio)phenyl)imidazolidine-2,4-dione] the value was not above 500 nM.
On the same count and under the same terms, as for `CC(C)Nc1nccc(CN2C(=O)N(c3ccc(SC(F)(F)F)cc3)C(=O)C2(C)C)c1F` [Compound 382, 1-((3-fluoro-2-(isopropylamino)pyridin-4-yl)methyl)-5,5-dimethyl-3-(4-((trifluoromethyl)thio)phenyl) imidazolidine-2,4-dione], the figure is 2000 to 10000 nM; as for `CC(C)Nc1cc(CN2C(=O)N(c3ccc(SC(F)(F)F)cc3)C(=O)C2(C)C)cc(F)n1` [Compound 383, 1-((2-fluoro-6-(isopropylamino)pyridin-4-yl)methyl)-5,5-dimethyl-3-(4-((trifluoromethyl)thio)phenyl) imidazolidine-2,4-dione], 2000 to 10000 nM; as for `CC(C)Nc1cc(CN2C(=O)N(c3ccc(SC(F)(F)F)cc3)C(=O)C2(C)C)c(F)cn1` [Compound 384, 1-((5-fluoro-2-(isopropylamino)pyridin-4-yl)methyl)-5,5-dimethyl-3-(4-((trifluoromethyl)thio)phenyl) imidazolidine-2,4-dione], not above 500 nM.
Turning to `CC(C)C#Cc1cc(CN2C(=O)N(c3ccc(SC(F)(F)F)cc3)C(=O)C2(C)C)cnc1N` [Compound 385, 1-((6-amino-5-(3-methylbut-1-yn-1-yl)pyridin-3-yl)methyl)-5,5-dimethyl-3-(4-((trifluoromethyl)thio)phenyl) imidazolidine-2,4-dione], in test [1], the IC50 fell in the range of 500 to 2000 nM.
Same read-out and setting: for `CC(C)Nc1cc(CN2C(=O)N(c3ccc(SC(F)(F)F)cc3)C(=O)C2(C)C)cnn1` [Compound 386, 1-((6-(isopropylamino)pyridazin-4-yl)methyl)-5,5-dimethyl-3-(4-((trifluoromethyl)thio)phenyl) imidazolidine-2,4-dione] the value was 2000 to 10000 nM; for `CC(C)(C)Nc1cc(CN2C(=O)N(c3ccc(SC(F)(F)F)cc3)C(=O)C2(C)C)ccn1` [Compound 387, 1-((2-(tert-butylamino)pyridin-4-yl)methyl)-5,5-dimethyl-3-(4-((trifluoromethyl)thio)phenyl) imidazolidine-2,4-dione], 500 to 2000 nM; for `CC1(C)C(=O)N(c2ccc([S+]([O-])C(F)(F)F)cc2)C(=O)N1Cc1ccnc(N)c1` (stereo not drawn) [Compound 393, 1-((2-aminopyridin-4-yl)methyl)-5,5-dimethyl-3-(4-((trifluoromethyl)sulfinyl)phenyl) imidazolidine-2,4-dione], not above 500 nM.
Same read-out and setting: for `CSc1ccc(N2C(=O)N(Cc3ccnc(N)c3)C(C)(C)C2=O)cc1` [Compound 395, 1-((2-aminopyridin-4-yl)methyl)-5,5-dimethyl-3-(4-(methylthio)phenyl)imidazolidine-2,4-dione] the value was 2000 to 10000 nM; for `CC1(C)C(=O)N(c2ccc(SC(F)(F)F)cc2)C(=O)N1Cc1cc(N)ncn1` [Compound 396, 1-((6-aminopyrimidin-4-yl)methyl)-5,5-dimethyl-3-(4-((trifluoromethyl)thio)phenyl) imidazolidine-2,4-dione], not above 500 nM.
In the case of `CC1(C)C(=O)N(c2ccc(SC(F)(F)F)cc2)C(=O)N1Cc1ccnc(NC(=O)Nc2cccnc2)c1` [Compound 397, 1-(4-((5,5-dimethyl-2,4-dioxo-3-(4-((trifluoromethyl)thio)phenyl)imidazolidin-1-yl)methyl)pyridin-2-yl)-3-(pyridin-3-yl)urea], the 50% inhibitory concentration (IC50) in test [1] is not above 500 nM.
With `CC1(C)C(=O)N(c2ccc(SC(F)(F)F)cc2)C(=O)N1Cc1ccnc(NC(=O)Nc2ccncc2)c1` [Compound 398, 1-(4-((5,5-dimethyl-2,4-dioxo-3-(4-((trifluoromethyl)thio)phenyl)imidazolidin-1-yl)methyl)pyridin-2-yl)-3-(pyridin-4-yl)urea], the IC50 in test [1] was not above 500 nM.
The same measure, in the same setting: as for `CC1(C)C(=O)N(c2ccc(SC(F)(F)F)cc2)C(=O)N1Cc1ccnc(Nc2ncccn2)c1` [Compound 399, 5,5-dimethyl-1-((2-(pyrimidin-2-ylamino)pyridin-4-yl)methyl)-3-(4-((trifluoromethyl)thio)phenyl) imidazolidine-2,4-dione], the figure is not above 500 nM; as for `CC1(C)C(=O)N(c2ccc(SC(F)(F)F)cc2)C(=O)N1CCc1cn[nH]c1` [Compound 400, 1-(2-(1H-pyrazol-4-yl)ethyl)-5,5-dimethyl-3-(4-((trifluoromethyl)thio)phenyl) imidazolidine-2,4-dione], 2000 to 10000 nM; as for `CC1(C)CNc2cc(N3C(=O)N(Cc4ccnc(N)c4)C(C)(C)C3=O)ccc21` [Compound 401, 1-((2-aminopyridin-4-yl)methyl)-3-(3,3-dimethylindolin-6-yl)-5,5-dimethylimidazolidine-2,4-dione], not above 500 nM.
With `CC1(C)CNc2ncc(CN3C(=O)N(c4ccc(SC(F)(F)F)cc4)C(=O)C3(C)C)cc21` [Compound 405, 1-((3,3-dimethyl-2,3-dihydro-1H-pyrrolo[2,3-b]pyridin-5-yl)methyl)-5,5-dimethyl-3-(4-((trifluoromethyl)thio)phenyl) imidazolidine-2,4-dione], in test [1], the IC50 was in the range of 2000 to 10000 nM.
Turning to `Cc1c[nH]c2ncc(CN3C(=O)N(c4ccc(SC(F)(F)F)cc4)C(=O)C3(C)C)cc12` [Compound 406, 5,5-dimethyl-1-((3-methyl-1H-pyrrolo[2,3-b]pyridin-5-yl)methyl)-3-(4-((trifluoromethyl)thio)phenyl) imidazolidine-2,4-dione], the IC50 in test [1] lay within 2000 to 10000 nM.

For the origin of these results see patent US20250145585A1, “HETEROCYCLIC INHIBITORS OF IGF-1R FOR TREATMENT OF DISEASE” (HORIZON THERAPEUTICS IRELAND DAC, priority 2023, published 2025).
